Data set [1] addresses T1, human concentrative nucleoside transporter 3 (hCNT3) (Homo sapiens, UniProt Q9HAS3).
T1 sequence (Q9HAS3 1-691): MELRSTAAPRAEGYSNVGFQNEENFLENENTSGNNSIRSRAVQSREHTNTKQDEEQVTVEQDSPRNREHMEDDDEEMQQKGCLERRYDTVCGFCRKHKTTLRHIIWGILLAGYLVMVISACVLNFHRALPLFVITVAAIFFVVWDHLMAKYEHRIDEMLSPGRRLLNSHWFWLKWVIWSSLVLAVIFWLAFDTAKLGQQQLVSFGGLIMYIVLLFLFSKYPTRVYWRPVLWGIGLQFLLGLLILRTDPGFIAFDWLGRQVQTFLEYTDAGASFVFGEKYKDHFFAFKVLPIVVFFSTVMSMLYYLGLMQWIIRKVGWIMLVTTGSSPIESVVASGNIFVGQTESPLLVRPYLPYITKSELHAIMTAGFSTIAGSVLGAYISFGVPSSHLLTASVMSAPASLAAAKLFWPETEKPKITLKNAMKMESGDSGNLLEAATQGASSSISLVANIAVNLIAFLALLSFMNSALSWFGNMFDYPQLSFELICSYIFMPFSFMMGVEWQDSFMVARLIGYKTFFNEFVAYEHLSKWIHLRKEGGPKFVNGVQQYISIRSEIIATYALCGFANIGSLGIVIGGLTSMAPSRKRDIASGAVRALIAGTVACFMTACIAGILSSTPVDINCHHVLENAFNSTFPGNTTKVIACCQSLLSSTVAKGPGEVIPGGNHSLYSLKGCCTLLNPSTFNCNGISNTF
Description: cold competition of [3H]-ribavirin uptake in oocytes. It is filed as cell-based.

Data set [2] addresses T1, human concentrative nucleoside transporter 3 (hCNT3). Described as above. Format: cell-based. This is another data set of the same source.
Data set [3] has the same target. The description is as above. Format: cell-based. The source holds these as a separate data set.
Data set [4] has as its target T2, bovine CNT3 (bCNT3) (Bos taurus, UniProt F1MGR1).
T2 sequence (F1MGR1 1-699): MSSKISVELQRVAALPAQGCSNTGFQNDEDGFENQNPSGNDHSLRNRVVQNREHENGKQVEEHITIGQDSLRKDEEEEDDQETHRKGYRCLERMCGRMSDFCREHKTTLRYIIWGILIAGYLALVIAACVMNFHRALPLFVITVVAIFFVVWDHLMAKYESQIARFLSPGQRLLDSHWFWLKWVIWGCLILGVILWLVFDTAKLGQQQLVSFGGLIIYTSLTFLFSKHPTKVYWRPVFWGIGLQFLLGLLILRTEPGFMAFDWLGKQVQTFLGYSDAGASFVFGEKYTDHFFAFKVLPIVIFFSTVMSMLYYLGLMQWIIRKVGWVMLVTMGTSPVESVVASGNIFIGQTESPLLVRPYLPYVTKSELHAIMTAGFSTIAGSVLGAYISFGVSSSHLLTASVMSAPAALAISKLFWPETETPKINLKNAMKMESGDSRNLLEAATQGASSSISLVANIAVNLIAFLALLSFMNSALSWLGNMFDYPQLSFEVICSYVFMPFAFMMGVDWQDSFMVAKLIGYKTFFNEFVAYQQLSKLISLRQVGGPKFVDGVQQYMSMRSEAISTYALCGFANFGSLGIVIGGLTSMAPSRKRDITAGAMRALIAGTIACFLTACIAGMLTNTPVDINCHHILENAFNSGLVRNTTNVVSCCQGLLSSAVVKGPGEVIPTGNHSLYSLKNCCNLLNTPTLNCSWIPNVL
Briefly: cryo-EM structure. It is filed as binding.

Data set [5] concerns the target T2, bovine CNT3 (bCNT3). Description: cryo-EM structure. Format: binding. The source holds these as a separate data set.
Data set [6] deals with the molecule itself. Briefly: cryo-EM structure.

Like-named read-outs stand apart in the source and are kept apart here.

On to `N#C[C@@]1(c2ccc3c(N)ncnn23)O[C@H](CO)[C@@H](O)[C@H]1O` [GS4, GS-441524], for which the IC50 in data set [1] is about 400 µM.

Consider `CC(C)C(=O)OC[C@H]1O[C@@H](n2ccc(NO)nc2=O)[C@H](O)[C@@H]1O` [MPV, molnupiravir], for which, in data set [2], the IC50 is about 54 µM.

The molecule `O=c1nc(NO)ccn1[C@@H]1O[C@H](CO)[C@@H](O)[C@H]1O` [NHC, N^4-hydroxycytidine] gave an IC50 in data set [3] of about 13 µM. For the same molecule, the “cryo-EM structure (2.74 Å), inward-facing state” value in data set [4] is “This substituent interacts with S380 in the bCNT3-NHC structure”.

As to `C[C@@]1(F)[C@H](O)[C@@H](CO)O[C@H]1n1ccc(=O)[nH]c1=O` [PSI-6206], the “cryo-EM structure (2.69 Å), inward-facing state” value in data set [5] was “The quality of the maps enabled unambiguous modeling of nucleoside drugs for NHC, PSI-6206, and ribavirin”.

B1: Bos taurus concentrative nucleoside transporter 3 (CNT3) (natural protein, UniProt F1MGR1 1-699, looked up)
chain: MSSKISVELQRVAALPAQGCSNTGFQNDEDGFENQNPSGNDHSLRNRVVQNREHENGKQVEEHITIGQDSLRKDEEEEDDQETHRKGYRCLERMCGRMSDFCREHKTTLRYIIWGILIAGYLALVIAACVMNFHRALPLFVITVVAIFFVVWDHLMAKYESQIARFLSPGQRLLDSHWFWLKWVIWGCLILGVILWLVFDTAKLGQQQLVSFGGLIIYTSLTFLFSKHPTKVYWRPVFWGIGLQFLLGLLILRTEPGFMAFDWLGKQVQTFLGYSDAGASFVFGEKYTDHFFAFKVLPIVIFFSTVMSMLYYLGLMQWIIRKVGWVMLVTMGTSPVESVVASGNIFIGQTESPLLVRPYLPYVTKSELHAIMTAGFSTIAGSVLGAYISFGVSSSHLLTASVMSAPAALAISKLFWPETETPKINLKNAMKMESGDSRNLLEAATQGASSSISLVANIAVNLIAFLALLSFMNSALSWLGNMFDYPQLSFEVICSYVFMPFAFMMGVDWQDSFMVAKLIGYKTFFNEFVAYQQLSKLISLRQVGGPKFVDGVQQYMSMRSEAISTYALCGFANFGSLGIVIGGLTSMAPSRKRDITAGAMRALIAGTIACFLTACIAGMLTNTPVDINCHHILENAFNSGLVRNTTNVVSCCQGLLSSAVVKGPGEVIPTGNHSLYSLKNCCNLLNTPTLNCSWIPNVL
For the molecule B1, in data set [6], the “stoichiometry N” value was 3.

For orientation: IC50 means the concentration that gives 50% inhibition. Low readings indicate inhibition by little substance, high ones a need for much substance. As a reminder, the stoichiometry N is the number of molecules, sites or subunits per partner or assembly.

For the origin of these results see article PMC11625470 (Nature chemical biology, 2024).
